Data reported in patent US20030013099A1, “Genes regulated by DNA methylation in colon tumors” (priority 2001, published 2003).

Test system: HMEC cells
Test: microarray differential expression, HMEC cells treated with Aza
Type: cell-based, human
Settings: vs untreated, log base 2, negative = upregulation
Protocol: HT29 cells were derived from a Grade II adenocarcinoma of the colon obtained from a person. HCT116 cells are a subpopulation of malignant cells isolated from a primary cell culture of a single human colonic carcinoma (Brattain et al. (1981) Cancer Res 41:1751-6). HMEC cells are a primary human epithelial cell line derived from the breast tissue of a normal donor. […] Treated cells were exposed to 500 nM 5-aza-2-deoxycytidine (Aza; Sigma-Aldrich) 24 hours after passage in complete culture medium. Control cultures were treated in parallel with phosphate buffered saline vehicle. After twenty-four hours, culture medium was replaced with drug-free medium. Control and Aza-treated cells were subcultured at equal densities at 1 and 5 days after the initial treatment, and proliferation was measured at the subsequent time point using a Coulter counter (Beckman Coulter, Fullerton Calif.). […]
Cells were harvested and lysed in 1 ml of TRIZOL reagent (5×10^6 cells/ml; Invitrogen). The lysates were vortexed thoroughly and incubated at room temperature for 2-3 minutes and extracted with 0.5 ml chloroform. The extract was mixed, incubated at room temperature for 5 minutes, and centrifuged at 16,000× g for 15 minutes at 4° C. The aqueous layer was collected, and an equal volume of isopropanol was added. Samples were mixed, incubated at room temperature for 10 minutes, and centrifuged at 16,000× g for 20 minutes at 4° C. The supernatant was removed, and the RNA pellet was washed with 1 ml of 70% ethanol, centrifuged at 16,000× g at 4° C., and resuspended in RNAse-free water. The concentration of the RNA was determined by measuring the optical density at 260 nm.
Poly(A) RNA was prepared using an OLIGOTEX mRNA kit (Qiagen) with the following modifications: OLIGOTEX beads were washed in tubes instead of on spin columns, resuspended in elution buffer, and then loaded onto spin columns to recover mRNA. To obtain maximum yield, the mRNA was eluted twice.
Each poly(A) RNA sample was reverse transcribed using MMLV reverse-transcriptase, 0.05 pg/μl oligo-d(T) primer (21mer), 1× first strand buffer, 0.03 units/ul RNAse inhibitor, 500 uM dAT?, 500 uM dGTP, 500 uM dTTP, 40 uM dCTP, and 40 uM either dCTP-Cy3 or dCTP-Cy5 (APB). The reverse transcription reaction was performed in a […] volume containing 200 ng poly(A) RNA using the GEMBRIGHT kit (Incyte Genomics). Specific control poly(A) RNAs (YCFRO6, YCFR45, YCFR67, YCFR85, YCFR43, YCFR22, YCFR23, YCFR25, YCFR44, YCFR26) were synthesized by in vitro transcription from non-coding yeast genomic DNA (W. Lei, unpublished). As quantitative controls, control mRNAs (YCFRO6, YCFR45, YCFR67, and YCFR85) at 0.002 ng, 0.02 ng, 0.2 ng, and 2 ng were diluted into reverse transcription reaction at ratios of 1:100,000, 1:10,000, 1:1000, 1:100 (w/w) to sample mRNA, respectively. To sample differential expression patterns, control mRNAs (YCFR43, YCFR22, YCFR23, YCFR25, YCFR44, YCFR26) were diluted into reverse transcription reaction at ratios of 1:3, 3:1, 1:10, 10:1, 1:25, 25:1 (w/w) to sample mRNA. Reactions were incubated at 37° C. for 2 hours, treated with […] of 0.5M sodium hydroxide, and incubated for 20 minutes at 85° C. to the stop the reaction and degrade the RNA.
cDNAs were purified using two successive CHROMA SPIN 30 gel filtration spin columns (Clontech). Cy3- and Cy5-labeled reaction samples were combined as described below and ethanol precipitated using […] of 100% ethanol. The cDNAs were then dried to completion using a SpeedVAC system (Savant Instruments, Holbrook N.Y.) and resuspended in 14 μl 5× SSC, 0.2% SDS.
Hybridization reactions contained 9 μl of sample mixture containing 0.2 μg each of Cy3 and CyS labeled cDNA synthesis products in 5× SSC, 0.2% SDS hybridization buffer. The mixture was heated to 65° C. for 5 minutes and was aliquoted onto the microarray surface and covered with an 1.8 cm^2 coverslip. […]

[1] = SEQ ID NO:1 hypothetical protein
[2] = SEQ ID NO:3 interferon-inducible protein
[3] = SEQ ID NO:5 chromosome 6p21.3, HLA Class I region
[4] = SEQ ID NO:6 unnamed protein product
[5] = SEQ ID NO:8 putative tumor antigen
[6] = SEQ ID NO:12 cDNA clone ZD16H10
[7] = SEQ ID NO:13, 14 T-cell receptor gamma
[8] = SEQ ID NO:15 pTR5 repetitive sequence
[9] = SEQ ID NO:24 pTR7 repetitive sequence
[10] = SEQ ID NO:25 chromosome 21 segment HS21C049
[11] = SEQ ID NO:26 hypothetical protein

`Nc1ncn([C@H]2C[C@H](O)[C@@H](CO)O2)c(=O)n1` [Aza, 5-aza-2-deoxycytidine] was tested, and the “differential expression, Clone ID 2416222, HMEC t/Aza (4d)” value [1] was 0.00, the “differential expression, Clone ID 2416222, HMEC t/Aza (9d)” value [1] was 0.00 and the “differential expression, Clone ID 4103545, HMEC t/Aza (4d)” value (SEQ ID NO:2 Incyte Unique) was −0.13. The “differential expression, Clone ID 4103545, HMEC t/Aza (9d)” value (SEQ ID NO:2 Incyte Unique) was −0.43, the “differential expression, Clone ID 322569, HMEC t/Aza (4d)” value [2] was −0.53 and the “differential expression, Clone ID 322569, HMEC t/Aza (9d)” value [2] was −0.80. The “differential expression, Clone ID 5322134, HMEC t/Aza (4d)” value [3] was −0.32, the “differential expression, Clone ID 5322134, HMEC t/Aza (9d)” value [3] was −0.43 and the “differential expression, Clone ID 1698458, HMEC t/Aza (4d)” value [4] was 0.26. For the same molecule, the “differential expression, Clone ID 1698458, HMEC t/Aza (9d)” value [4] was 0.26, the “differential expression, Clone ID 1871523, HMEC t/Aza (4d)” value (SEQ ID NO:7 KIAA1046 protein) was −0.24 and the “differential expression, Clone ID 1871523, HMEC t/Aza (9d)” value (SEQ ID NO:7 KIAA1046 protein) was −0.07. For the same molecule, the “differential expression, Clone ID 6024084, HMEC t/Aza (4d)” value [5] was 0.00, the “differential expression, Clone ID 6024084, HMEC t/Aza (9d)” value [5] was 0.00 and the “differential expression, Clone ID 3810006, HMEC t/Aza (4d)” value (SEQ ID NO:9 Incyte Unique) was 0.00. For the same molecule, the “differential expression, Clone ID 3810006, HMEC t/Aza (9d)” value (SEQ ID NO:9 Incyte Unique) was 0.00, the “differential expression, Clone ID 4508879, HMEC t/Aza (4d)” value (SEQ ID NO:10 Incyte Unique) was −0.14 and the “differential expression, Clone ID 4508879, HMEC t/Aza (9d)” value (SEQ ID NO:10 Incyte Unique) was −0.20. The “differential expression, Clone ID 4225379, HMEC t/Aza (4d)” value (SEQ ID NO:11 U 6 RNA) was 0.00, the “differential expression, Clone ID 4225379, HMEC t/Aza (9d)” value (SEQ ID NO:11 U 6 RNA) was 0.00 and the “differential expression, Clone ID 3463713, HMEC t/Aza (4d)” value [6] was −0.26. For the same molecule, the “differential expression, Clone ID 3463713, HMEC t/Aza (9d)” value [6] was −0.48, the “differential expression, Clone ID 2998017, HMEC t/Aza (4d)” value [7] was 0.00 and the “differential expression, Clone ID 2998017, HMEC t/Aza (9d)” value [7] was 0.00. The “differential expression, Clone ID 4318273, HMEC t/Aza (4d)” value [8] was 0.00, the “differential expression, Clone ID 4318273, HMEC t/Aza (9d)” value [8] was −0.26 and the “differential expression, Clone ID 1649414, HMEC t/Aza (4d)” value (SEQ ID NO:16 Hep27 protein) was −0.32. For the same molecule, the “differential expression, Clone ID 1649414, HMEC t/Aza (9d)” value (SEQ ID NO:16 Hep27 protein) was −0.32, the “differential expression, Clone ID 1684742, HMEC t/Aza (4d)” value (SEQ ID NO:18 cDNA FLJ20222) was −0.36 and the “differential expression, Clone ID 1684742, HMEC t/Aza (9d)” value (SEQ ID NO:18 cDNA FLJ20222) was −0.20. The “differential expression, Clone ID 2825816, HMEC t/Aza (4d)” value (SEQ ID NO:19 KIAA0412) was 0.00, the “differential expression, Clone ID 2825816, HMEC t/Aza (9d)” value (SEQ ID NO:19 KIAA0412) was 0.00 and the “differential expression, Clone ID 2440943, HMEC t/Aza (4d)” value (SEQ ID NO:21 Incyte Unique) was −0.20. The “differential expression, Clone ID 2440943, HMEC t/Aza (9d)” value (SEQ ID NO:21 Incyte Unique) was −0.26, the “differential expression, Clone ID 1294339, HMEC t/Aza (4d)” value (SEQ ID NO:22 PDGF-B) was −0.68 and the “differential expression, Clone ID 1294339, HMEC t/Aza (9d)” value (SEQ ID NO:22 PDGF-B) was −0.72. The “differential expression, Clone ID 5104741, HMEC t/Aza (4d)” value (SEQ ID NO:23 cDNA FLJ10570) was 0.00, the “differential expression, Clone ID 5104741, HMEC t/Aza (9d)” value (SEQ ID NO:23 cDNA FLJ10570) was 0.00 and the “differential expression, Clone ID 1855389, HMEC t/Aza (4d)” value [9] was −0.14. The “differential expression, Clone ID 1855389, HMEC t/Aza (9d)” value [9] was −0.26, the “differential expression, Clone ID 5207613, HMEC t/Aza (4d)” value [10] was −0.26 and the “differential expression, Clone ID 5207613, HMEC t/Aza (9d)” value [10] was −0.37. For the same molecule, the “differential expression, Clone ID 3207902, HMEC t/Aza (4d)” value [11] was −0.14, the “differential expression, Clone ID 3207902, HMEC t/Aza (9d)” value [11] was −0.26 and the “differential expression, Clone ID 4999769, HMEC t/Aza (4d)” value (SEQ ID NO:27 ZNFpT17) was 0.00. The “differential expression, Clone ID 4999769, HMEC t/Aza (9d)” value (SEQ ID NO:27 ZNFpT17) was 0.07, the “differential expression, Clone ID 408886, HMEC t/Aza (4d)” value (SEQ ID NO:28 transketolase) was −0.26 and the “differential expression, Clone ID 408886, HMEC t/Aza (9d)” value (SEQ ID NO:28 transketolase) was −0.32. For the same molecule, the “differential expression, Clone ID 4764233, HMEC t/Aza (4d)” value (SEQ ID NO:30 GAGE-8) was 0.00.
